Tested on: human peripheral blood mononuclear cells (PBMC)
Test: PBMC cytotoxicity assay (CellTiter-Glo)
Format: cell-based
Settings: cytotoxicity in stimulated PBMC, recorded as pCC50
Description: Compounds of the present invention were tested via high-throughput cellular assays utilizing detection of kynurenine via mass spectrometry and cytotoxicity as end-points. […] Compounds with IDO1 inhibitory properties decreased the amount of kynurenine produced by the cells via the tryptophan catabolic pathway. Cellular toxicity due to the effect of compound treatment was measured using CellTiter-Glo® reagent (CTG) (Promega Corporation, Madison, Wis.), which is based on luminescent detection of ATP, an indicator of metabolically active cells.
In preparation for the assays, test compounds were serially diluted 3-fold in DMSO from a typical top concentration of 1 mM or 5 mM and plated at 0.5 μL in 384-well, polystyrene, clear bottom, tissue culture treated plates with lids (Greiner Bio-One, Kremsmünster, Austria) to generate 11-point dose response curves. Low control wells (0% kynurenine or 100% cytotoxicity) contained either 0.5 μL of DMSO in the presence of unstimulated (−IFN-γ/−LPS) PBMCs for the mass spectrometry assay or 0.5 μL of DMSO in the absence of cells for the cytotoxicity assay, and high control wells (100% kynurenine or 0% cytotoxicity) contained 0.5 μL of DMSO in the presence of stimulated (+IFN-γ/+LPS) PBMCs for both the mass spectrometry and cytotoxicity assays.
Frozen stocks of PBMCs were washed and recovered in RPMI 1640 medium (Thermo Fisher Scientific, Inc., Waltham, Mass.) supplemented with 10% v/v heat-inactivated fetal bovine serum (FBS) (Thermo Fisher Scientific, Inc., Waltham, Mass.), and 1× penicillin-streptomycin antibiotic solution (Thermo Fisher Scientific, Inc., Waltham, Mass.). The cells were diluted to 1,000,000 cells/mL in the supplemented RPMI 1640 medium. 50 μL of either the cell suspension, for the mass spectrometry assay, or medium alone, for the cytotoxicity assay, were added to the low control wells, on the previously prepared 384-well compound plates, resulting in 50,000 cells/well or 0 cells/well respectively. IFN-γ and LPS were added to the remaining cell suspension at final concentrations of 100 ng/ml and 50 ng/ml respectively, and 50 μL of the stimulated cells were added to all remaining wells on the 384-well compound plates. The plates, with lids, were then placed in a 37° C., 5% CO2 humidified incubator for 2 days.
Following incubation, the 384-well plates were removed from the incubator and allowed to equilibrate to room temperature for 30 minutes. For the cytotoxicity assay, CellTiter-Glo® was prepared according to the manufacturer's instructions, and 40 μL were added to each plate well. After a twenty minute incubation at room temperature, luminescence was read on an EnVision® Multilabel Reader (PerkinElmer Inc., Waltham, Mass.). For the mass spectrometry assay, 10 μL of supernatant from each well of the compound-treated plates were added to 40 μL of acetonitrile, containing 10 μM of an internal standard for normalization, in 384-well, polypropylene, V-bottom plates (Greiner Bio-One, Kremsmünster, Austria) to extract the organic analytes. Following centrifugation at 2000 rpm for 10 minutes, 10 μL from each well of the acetonitrile extraction plates were added to 90 μL of sterile, distilled H2O in 384-well, polypropylene, V-bottom plates for analysis of kynurenine and the internal standard on the RapidFire 300 (Agilent Technologies, Santa Clara, Calif.) and 4000 QTRAP MS (SCIEX, Framingham, Mass.). MS data were integrated using Agilent Technologies' RapidFire Integrator software, and data were normalized for analysis as a ratio of kynurenine to the internal standard.

SMILES	PBMC_TOX PXC50
CC(C)CN(c1ncc([C@H](C)CC(=O)O)cc1Nc1n[nH]c(C#N)n1)C1CCOCC1 [Example 43, (3R)-3-{5-[(5-cyano-1H-1,2,4-triazol-3-yl)amino]-6-[(2-methylpropyl)(oxan-4-yl)amino]pyridin-3-yl}butanoic acid]	<5.0
CC(C)CN(c1ncc([C@H](C)CC(=O)O)cc1Nc1n[nH]c(C(N)=O)n1)C1CCOCC1 [Example 44, (3R)-3-{5-[(5-carbamoyl-1H-1,2,4-triazol-3-yl)amino]-6-[(2-methylpropyl)(oxan-4-yl)amino]pyridin-3-yl}butanoic acid]	<5.0
Cc1nnc(Nc2cc([C@H](C)CC(=O)O)cnc2N(CC(C)C)C2CCCCC2)s1 [Example 45, (3R)-3-{6-[cyclohexyl(2-methylpropyl)amino]-5-[(5-methyl-1,3,4-thiadiazol-2-yl)amino]pyridin-3-yl}butanoic acid]	<5.0
COC1CCC(N(CC(C)C)c2ncc(C(C)CC(=O)O)cc2Nc2nc(Cl)ns2)CC1 (stereo not drawn) [Example 46, (3RS)-3-{5-[(3-chloro-1,2,4-thiadiazol-5-yl)amino]-6-[(2-methylpropyl)[(1rs&,4rs&)-4-methoxycyclohexyl]amino]pyridin-3-yl}butanoic acid]	<5.0
COCc1ccc(Nc2cc(C(C)CC(=O)O)cnc2N(CC(C)C)C2CCC(OC)CC2)nc1 (stereo not drawn) [Example 47, (3RS)-3-(5-{[5-(methoxymethyl)pyridin-2-yl]amino}-6-[(2-methylpropyl)[(1rs&,4rs&)-4-methoxycyclohexyl]amino]pyridin-3-yl)butanoic acid]	<5.0
CC(C)CN(c1ncc([C@H](C)CC(=O)O)cc1Nc1nc(C(F)(F)F)c[nH]1)C1CCOCC1 [Example 48, (3R)-3-{6-[(2-methylpropyl)(oxan-4-yl)amino]-5-{[4-(trifluoromethyl)-1H-imidazol-2-yl]amino}pyridin-3-yl}butanoic acid]	<5.0
COCc1nnc(Nc2cc([C@H](C)CC(=O)O)cnc2N(CC(C)C)C2CCOCC2)s1 [Example 49, (3R)-3-(5-{[5-(methoxymethyl)-1,3,4-thiadiazol-2-yl]amino}-6-[(2-methylpropyl)(oxan-4-yl)amino]pyridin-3-yl)butanoic acid]	<5.0
COC(=O)c1c[nH]c(Nc2cc([C@H](C)CC(=O)O)cnc2N(CC(C)C)C2CCOCC2)n1 [Example 50, (3R)-3-(5-{[4-(methoxycarbonyl)-1H-imidazol-2-yl]amino}-6-[(2-methylpropyl)(oxan-4-yl)amino]pyridin-3-yl)butanoic acid]	<5.0
CC(C)CN(CC(C)C)c1ncc([C@H](C)CC(=O)O)cc1Nc1nnc(C(F)(F)F)s1 [Example 51, (3R)-3-{6-[bis(2-methylpropyl)amino]-5-{[5-(trifluoromethyl)-1,3,4-thiadiazol-2-yl]amino}pyridin-3-yl}butanoic acid]	<5.0
CC(C)CN(c1ncc([C@H](C)CC(=O)O)cc1Nc1ccc(C(F)(F)F)cn1)C1CCOCC1 [Example 52, (3R)-3-{6-[(2-methylpropyl)(oxan-4-yl)amino]-5-{[5-(trifluoromethyl)pyridin-2-yl]amino}pyridin-3-yl}butanoic acid]	<5.0
COC1CCC(N(CC(C)C)c2ncc(C(C)CC(=O)O)cc2Nc2ccc(C#N)cn2)CC1 (stereo not drawn) [Example 53, (3RS)-3-{5-[(5-cyanopyridin-2-yl)amino]-6-[(2-methylpropyl)[(1rs&,4rs&)-4-methoxycyclohexyl]amino]pyridin-3-yl}butanoic acid]	<5.0
CC(C)CN(CC(C)C)c1ncc([C@H](C)CC(=O)O)cc1Nc1nc(C(C)C)ns1 [Example 54, (3R)-3-{6-[bis(2-methylpropyl)amino]-5-{[3-(propan-2-yl)-1,2,4-thiadiazol-5-yl]amino}pyridin-3-yl}butanoic acid]	<5.0
Cc1ccc(CC(=O)Nc2cc([C@H](C)CC(=O)O)cnc2N(CC(C)C)C2CC3(C2)CN(C(=O)OC(C)(C)C)C3)cc1 [Example 55, (3R)-3-[6-({2-[(tert-butoxy)carbonyl]-2-azaspiro[3.3]heptan-6-yl}(2-methylpropyl)amino)-5-[2-(4-methylphenyl)acetamido]pyridin-3-yl]butanoic acid]	<5.0
COCc1nsc(Nc2cc([C@H](C)CC(=O)O)cnc2N(CC(C)C)C2CCOCC2)n1 [Example 56, (3R)-3-(5-{[3-(methoxymethyl)-1,2,4-thiadiazol-5-yl]amino}-6-[(2-methylpropyl)(oxan-4-yl)amino]pyridin-3-yl)butanoic acid]	<5.0
COCc1ccc(Nc2cc([C@H](C)CC(=O)O)cnc2N(CC(C)C)[C@H]2CC[C@@H](OC)CC2)nc1 [Example 58, (3R)-3-(5-{[5-(methoxymethyl)pyridin-2-yl]amino}-6-[(2-methylpropyl)[(1s,4s)-4-methoxycyclohexyl]amino]pyridin-3-yl)butanoic acid]	<5.0
CC(C)CN(c1ncc(C(C)CC(=O)O)cc1Nc1nc(C(F)(F)F)ns1)C1CCC(O)CC1 (stereo not drawn) [Example 59, (3RS)-3-{6-[(2-methylpropyl)[(1rs&,4rs&)-4-hydroxycyclohexyl]amino]-5-{[3-(trifluoromethyl)-1,2,4-thiadiazol-5-yl]amino}pyridin-3-yl}butanoic acid]	<5.0
CC(C)CN(c1ncc([C@H](C)CC(=O)O)cc1Nc1ccc(Cl)nn1)C1CCOCC1 [Example 60, (3R)-3-{5-[(6-chloropyridazin-3-yl)amino]-6-[(2-methylpropyl)(oxan-4-yl)amino]pyridin-3-yl}butanoic acid]	<5.0
Cc1cc(NC(=O)Nc2cc([C@H](C)CC(=O)O)cnc2N(CC(C)C)C2CC3(C2)CN(C(=O)OC(C)(C)C)C3)on1 [Example 61, (3R)-3-[6-({2-[(tert-butoxy)carbonyl]-2-azaspiro[3.3]heptan-6-yl}(2-methylpropyl)amino)-5-{[(3-methyl-1,2-oxazol-5-yl)carbamoyl]amino}pyridin-3-yl]butanoic acid]	<5.0
CC(C)CN(c1ncc([C@H](C)CC(=O)O)cc1Nc1ccc(C#N)nc1)C1CCOCC1 [Example 62, (3R)-3-{5-[(6-cyanopyridin-3-yl)amino]-6-[(2-methylpropyl)(oxan-4-yl)amino]pyridin-3-yl}butanoic acid]	<5.0
CC(C)CN(c1ncc([C@H](C)CC(=O)O)cc1Nc1nnc(C(N)=O)s1)C1CCCCC1 [Example 63, (3R)-3-{5-[(5-carbamoyl-1,3,4-thiadiazol-2-yl)amino]-6-[cyclohexyl(2-methylpropyl)amino]pyridin-3-yl}butanoic acid]	<5.0
CNC(=O)c1nnc(Nc2cc([C@H](C)CC(=O)O)cnc2N(CC(C)C)C2CCCCC2)s1 [Example 64, (3R)-3-{6-[cyclohexyl(2-methylpropyl)amino]-5-{[5-(methylcarbamoyl)-1,3,4-thiadiazol-2-yl]amino}pyridin-3-yl}butanoic acid]	<5.0
CC(C)CN(c1ncc([C@H](C)CC(=O)O)cc1Nc1cnc(C#N)nc1)C1CCOCC1 [Example 65, (3R)-3-{5-[(2-cyanopyrimidin-5-yl)amino]-6-[(2-methylpropyl)(oxan-4-yl)amino]pyridin-3-yl}butanoic acid]	<5.0
